Measured values taken from patent US20190315775A1, “MODIFIED […] AND PHARMACEUTICAL COMPOSITION HAVING SAME AS ACTIVE INGREDIENT” (KEIO UNIVERSITY, priority 2016, published 2019).

How the values were obtained:
MUM24 cells = experiment: Cell cycle, DNA content by flow cytometry; assay type: cell-based, human; conditions: MUM24, 3 μM, 12, 24 and 36 hours
Method: The present inventors have reported that when HeLa cells of a human cervical cancer-derived cell line are treated with TC11, multipolarization and then multinucleation take place (Shiheido, H. et al., PLoS One, 7: e38878, 2012). The present inventors have also reported in the same paper α-tubulin and NPM1 as binding molecules for TC11. Next, intracellular DNA content was measured using flow cytometry in order to examine the effects of TC11 and its derivative, PEG11(E)-TC11 on cell cycle. More specifically, MUM24 was adjusted at 4.0×10^5 cells/mL, 1.95 mL each of MUM24 was seeded to a 6-well plate. From the next day, TC11 and PEG11(E)-TC11 were added in such a manner that the final concentrations were 0 and 3 μM, respectively, and then cells were cultured at 37° C. for 12, 24, and 36 hours. Each cell was collected, and then washed with PBS. 70% EtOH ([…]) was added and then the resultant was left to stand overnight at −30° C. After washing with PBS, […] of citrate-phosphate buffer was added, and then the resultant was left to stand at room temperature for 30 minutes, thereby eluting fragmented DNA. […] Fluorescence intensity was measured using BD FACS Calibur (Trademark) (Becton, Dickinson and company, New Jersey, USA). Wavelengths for measurement were an excitation wavelength of 488 nm, and a fluorescence wavelength of 610±10 nm.

[1] = test system: Li-7 (human liver cancer cells); experiment: WST-1 proliferation assay (Example 10), Li-7; assay type: cell-based; conditions: U-7 (head of Table 4), WST-1, 48 hours
Method: (§1) Cancer cells used herein were KMS34 (human myeloma cells), HeLa (human cervical cancer cells), HCT116 (human colon cancer cells; p53+/+), KATOIII (human stomach cancer cells), MDA-MB-231 (human breast cancer cells), HT-29 (human colon adenocarcinoma cells), PANC-1 (human pancreatic cancer cells), and Li-7 (human liver cancer cells). Proliferation assay of various cancer cells was performed by the WST-1 method (Cook, J A. & Mitchell, J B., Anal. Biochem., 179, 1-7, 1984) as follows. One μ1 each of PEG11(E)-TC11 and PEG11(O)-TC11 prepared in advance at target concentrations was added into each well of a 96-well microplate. Medium was added to the wells at 50 μl per well, and then mixed by tapping lightly the plate. Subsequently, KMS34 was prepared at a concentration of 5×10^5 cells/ml, and cells other than KMS34 were prepared at a concentration of 2×10^5 cells/ml. Cells were seeded at 50 μl per well (2.5×10^4 cells, 1×10^4 cells), and then incubated in a CO2 incubator (37° C., 5% CO2) for 48 hours. […] Subsequently, the plate was shaken with a plate reader for 1 minute, and then absorbance was measured at 450 nm. At this time, absorbance was also measured at 595 nm as a reference wavelength. The net absorbance was obtained by subtracting the absorbance at the reference wavelength from the absorbance at 450 nm.

[2] = test system: MDA-MB-231 (human breast cancer cells); experiment: WST-1 proliferation assay (Example 10), MDA-MB-231; assay type: cell-based; conditions: WST-1, 48 hours
Method: as §1

[3] = Stability in medium (containing FBS); assay type: in vitro ADME
Source text: Subsequently, PEG11(E)-TC11 was examined for stability in mouse blood plasma (A) and in medium (B). […] Such degradation is considered to result from a small amount of esterase in FBS (fetal calf serum) contained in the medium.

[4] = test system: KMS11 high-risk MM cell line; experiment: WST-1 cell proliferation inhibition (Example 8), KMS11; assay type: cell-based; conditions: Homo sapiens, KMS-11, WST-1, 48 hours, read-out: IC50, cell proliferation inhibitory activity, KMS11
Method: Similar to Example 7, high-risk MM cell lines were treated with drugs, TC11 and PEG5(E)-TC11 at arbitrary concentrations. […] Specifically, each high-risk MM cell line was prepared at 5×10^5 cells/ml, and then seeded at 50 μl per well (2.5×10^4 cells). Drugs such as TC11, and PEG5(E)-TC11 were added to wells at arbitrary concentrations. WST-1 reagent was added at 48 hours after addition of drugs. After 1 hour of reaction at 37° C. in a CO2 incubator, absorbance was measured at a wavelength of 450 nm using a microplate reader. Cell viability was found from an absorbance ratio using absorbance at 0 μM designated as 100%. IC50 was calculated from a semi-logarithmic chart using Microsoft (registered trademark) Excel.

cereblon (CRBN) = target: T1, cereblon (CRBN) (Homo sapiens, UniProt Q96SW2); experiment: Pull-down assay of cereblon with biotinylated drug on streptavidin beads; assay type: binding; conditions: 30° C., 30 minutes, FIG. 9A
T1 construct: recombinant full-length CRBN prepared by the above method was reacted with the beads; T7 tag (N); FLAG tag (C); made in house; host or cells: 293T cells (pcDNA3.3 vector), RIPA extract purified on Ni Sepharose excel
T1 sequence (Q96SW2 whole entry): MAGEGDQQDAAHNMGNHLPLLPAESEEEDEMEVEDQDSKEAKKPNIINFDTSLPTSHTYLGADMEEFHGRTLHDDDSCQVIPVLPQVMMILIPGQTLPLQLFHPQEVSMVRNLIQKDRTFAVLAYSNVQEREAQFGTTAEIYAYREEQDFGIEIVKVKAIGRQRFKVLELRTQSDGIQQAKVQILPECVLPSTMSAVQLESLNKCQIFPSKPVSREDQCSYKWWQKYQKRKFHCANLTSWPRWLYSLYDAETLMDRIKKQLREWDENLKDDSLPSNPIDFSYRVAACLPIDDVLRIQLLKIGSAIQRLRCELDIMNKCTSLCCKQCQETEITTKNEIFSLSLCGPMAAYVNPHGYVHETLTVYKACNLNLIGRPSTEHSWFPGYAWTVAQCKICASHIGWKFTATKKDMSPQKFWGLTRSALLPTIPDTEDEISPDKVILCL
Method: CRBN was prepared as follows. A T7 tag was added 5′-upstream of, and a FLAG tag and a histidine tag were added 3′-downstream of a full-length CRBN gene. The gene was introduced into a pcDNA3.3 expression vector (Invitrogen), thereby constructing a plasmid DNA. Next, a Kozak sequence was added 5′-upstream of the T7 tag using a KOD-Plus-Mutagenesis Kit (TOYOBO). The plasmid DNA was transfected into 293T cells. After 4 days of culture at 37° C. with 5% CO2, cells were extracted with a RIPA buffer (Thermo), and then the extracted fraction was purified using Ni Sepharose excel (GE Healthcare). Since the purified fraction contained imidazole, TBS (Nacalai Tesque) was subjected to buffer exchange. […] Centrifugation was performed to separate the resultants into a flow-through (F) fraction and a bead (B) fraction. Protein bands corresponding to CRBN were separated by SDS-PAGE, and then detected by Western blot. […] Note that “I” indicates “Input fraction”.

Row | IC50 [1] [µM] | IC50 [2] [µM] | Stability in medium [3] | Binding of CRBN to drug immobilized on beads (pull-down, Western blot) (cereblon (CRBN)) | SMILES | Effect on cell cycle (proportion of tetraploid cells) (MUM24 cells) | IC50 [4] [µM]
1 | 9.4 | 11 | slowly degraded even in medium |  | COCCOCCOCCOCCOCCOCCOCCOCCOCCOCCOCCOCCC(=O)OCCOc1cc2c(cc1N)C(=O)N(c1c(C(C)C)cccc1C(C)C)C2=O [PEG11(E)-TC11] | induce cell death by causing G2/M phase arrest | 
2 | 87 | 80 |  |  | COCCOCCOCCOCCOCCOCCOCCOCCOCCOCCOCCOCCOc1cc2c(cc1N)C(=O)N(c1c(C(C)C)cccc1C(C)C)C2=O [PEG11(O)-TC11] |  | 
3 |  |  |  | did not bind | CC(C)c1cccc(C(C)C)c1N1C(=O)c2ccc(N)cc2C1=O [TC11, 2-(2,6-di-isopropylphenyl)-5-amino-1H-isoindole-1,3-dione, reference compound] | induce cell death by causing G2/M phase arrest | 3.2
